Tested on: Setaria faberi (SETFA)
Test: Post-emergence herbicidal activity, glasshouse pot test
Format: in vivo
Settings: Setaria faberi, rate 125 g/ha, evaluated after 14 or 15 days, read-out: Post-emergence activity, SETFA (100=total damage to plant; 0=no damage to plant)
Description: (§1) Monocotyledonous and dicotyledonous test plants were sown in sterilised standard soil in pots. After cultivation for one day (pre-emergence) or after 10 days cultivation (post-emergence) under controlled conditions in a glasshouse, the plants were sprayed with an aqueous spray solution derived from the formulation of the technical active ingredient in 0.6 ml acetone and 45 ml formulation solution containing 10.6% Emulsogen EL (Registry number 61791-12-6), 42.2% N-methylpyrrolidone, 42.2% dipropylene glycol monomethyl ether (Registry number 34590-94-8) and 0.2% X-77 (Registry number 11097-66-8). The test plants were then grown in a greenhouse under optimum conditions until, 14 or 15 days later for post-emergence and 20 days for pre-emergence, the test was evaluated (100=total damage to plant; 0=no damage to plant). Alopecurus myosuroides (ALOMY), Avena fatua (AVEFA), Lolium perenne (LOLPE), Setaria faberi (SETFA), Digitaria sanguinalis (DIGSA), Echinochloa crus-galli (ECHCG) Post-Emergence Activity

Row | SMILES | pest or weed control at 125 g/ha
1 | CCCC(CC)C(=O)OC1=C(c2c(CC)cc(C)cc2CC)C(=O)CC2(CCOCC2)C1 (centres unmarked) [Compound P15] | 40%
2 | CCC(=O)OC1=C(c2c(CC)cc(C)cc2CC)C(=O)CC2(CCOCC2)C1 [Compound P2] | 70%
3 | CCCCCCC(=O)OC1=C(c2c(CC)cc(C)cc2CC)C(=O)CC2(CCOCC2)C1 [Compound P10] | 70%
4 | CCCOC1=C(c2c(CC)cc(C)cc2CC)C(=O)CC2(CCOCC2)C1 [Compound P41] | 0%
5 | CCc1cc(C)cc(CC)c1C1=C(OC(=O)CC(C)(C)C)CC2(CCOCC2)CC1=O [Compound P6] | 0%
6 | CCCCCCCCCC(=O)OC1=C(c2c(CC)cc(C)cc2CC)C(=O)CC2(CCOCC2)C1 [Compound P43] | 70%

Tested on: Avena fatua (AVEFA)
Test: as above
Format: in vivo
Settings: Avena fatua, rate 125 g/ha, evaluated after 14 or 15 days, read-out: Post-emergence activity, AVEFA (100=total damage to plant; 0=no damage to plant)
Description: as §1

Row | SMILES | pest or weed control at 125 g/ha
7 | CCCC(CC)C(=O)OC1=C(c2c(CC)cc(C)cc2CC)C(=O)CC2(CCOCC2)C1 (centres unmarked) [Compound P15] | 70%
8 | CCC(=O)OC1=C(c2c(CC)cc(C)cc2CC)C(=O)CC2(CCOCC2)C1 [Compound P2] | 90%
9 | CCCCCCC(=O)OC1=C(c2c(CC)cc(C)cc2CC)C(=O)CC2(CCOCC2)C1 [Compound P10] | 100%
10 | CCCOC1=C(c2c(CC)cc(C)cc2CC)C(=O)CC2(CCOCC2)C1 [Compound P41] | 10%
11 | CCc1cc(C)cc(CC)c1C1=C(OC(=O)CC(C)(C)C)CC2(CCOCC2)CC1=O [Compound P6] | 80%
12 | CCCCCCCCCC(=O)OC1=C(c2c(CC)cc(C)cc2CC)C(=O)CC2(CCOCC2)C1 [Compound P43] | 100%

Tested on: Digitaria sanguinalis (DIGSA)
Test: as above
Format: in vivo
Settings: Digitaria sanguinalis, rate 125 g/ha, evaluated after 14 or 15 days, read-out: Post-emergence activity, DIGSA (100=total damage to plant; 0=no damage to plant)
Description: as §1

Row | SMILES | pest or weed control at 125 g/ha
13 | CCCC(CC)C(=O)OC1=C(c2c(CC)cc(C)cc2CC)C(=O)CC2(CCOCC2)C1 (centres unmarked) [Compound P15] | 70%
14 | CCC(=O)OC1=C(c2c(CC)cc(C)cc2CC)C(=O)CC2(CCOCC2)C1 [Compound P2] | 100%
15 | CCCCCCC(=O)OC1=C(c2c(CC)cc(C)cc2CC)C(=O)CC2(CCOCC2)C1 [Compound P10] | 80%
16 | CCCOC1=C(c2c(CC)cc(C)cc2CC)C(=O)CC2(CCOCC2)C1 [Compound P41] | 50%
17 | CCc1cc(C)cc(CC)c1C1=C(OC(=O)CC(C)(C)C)CC2(CCOCC2)CC1=O [Compound P6] | 30%
18 | CCCCCCCCCC(=O)OC1=C(c2c(CC)cc(C)cc2CC)C(=O)CC2(CCOCC2)C1 [Compound P43] | 70%

Tested on: Lolium perenne (LOLPE)
Test: as above
Format: in vivo
Settings: Lolium perenne, rate 125 g/ha, evaluated after 14 or 15 days, read-out: Post-emergence activity, LOLPE (100=total damage to plant; 0=no damage to plant)
Description: as §1

Row | SMILES | pest or weed control at 125 g/ha
19 | CCCC(CC)C(=O)OC1=C(c2c(CC)cc(C)cc2CC)C(=O)CC2(CCOCC2)C1 (centres unmarked) [Compound P15] | 0%
20 | CCC(=O)OC1=C(c2c(CC)cc(C)cc2CC)C(=O)CC2(CCOCC2)C1 [Compound P2] | 80%
21 | CCCCCCC(=O)OC1=C(c2c(CC)cc(C)cc2CC)C(=O)CC2(CCOCC2)C1 [Compound P10] | 90%
22 | CCCOC1=C(c2c(CC)cc(C)cc2CC)C(=O)CC2(CCOCC2)C1 [Compound P41] | 0%
23 | CCc1cc(C)cc(CC)c1C1=C(OC(=O)CC(C)(C)C)CC2(CCOCC2)CC1=O [Compound P6] | 10%
24 | CCCCCCCCCC(=O)OC1=C(c2c(CC)cc(C)cc2CC)C(=O)CC2(CCOCC2)C1 [Compound P43] | 80%

Tested on: Alopecurus myosuroides (ALOMY)
Test: as above
Format: in vivo
Settings: Alopecurus myosuroides, rate 125 g/ha, evaluated after 14 or 15 days, read-out: Post-emergence activity, ALOMY (100=total damage to plant; 0=no damage to plant)
Description: as §1

Row | SMILES | pest or weed control at 125 g/ha
25 | CCCC(CC)C(=O)OC1=C(c2c(CC)cc(C)cc2CC)C(=O)CC2(CCOCC2)C1 (centres unmarked) [Compound P15] | 10%
26 | CCC(=O)OC1=C(c2c(CC)cc(C)cc2CC)C(=O)CC2(CCOCC2)C1 [Compound P2] | 80%
27 | CCCCCCC(=O)OC1=C(c2c(CC)cc(C)cc2CC)C(=O)CC2(CCOCC2)C1 [Compound P10] | 100%
28 | CCCOC1=C(c2c(CC)cc(C)cc2CC)C(=O)CC2(CCOCC2)C1 [Compound P41] | 10%
29 | CCc1cc(C)cc(CC)c1C1=C(OC(=O)CC(C)(C)C)CC2(CCOCC2)CC1=O [Compound P6] | 60%
30 | CCCCCCCCCC(=O)OC1=C(c2c(CC)cc(C)cc2CC)C(=O)CC2(CCOCC2)C1 [Compound P43] | 100%

Tested on: Echinochloa crus-galli (ECHCG)
Test: as above
Format: in vivo
Settings: Echinochloa crus-galli, rate 125 g/ha, evaluated after 14 or 15 days, read-out: Post-emergence activity, ECHCG (100=total damage to plant; 0=no damage to plant)
Description: as §1

Row | SMILES | pest or weed control at 125 g/ha
31 | CCCCCCCCCC(=O)OC1=C(c2c(CC)cc(C)cc2CC)C(=O)CC2(CCOCC2)C1 [Compound P43] | 70%

Tested on: Setaria faberi (SETFA)
Test: Pre-emergence herbicidal activity, glasshouse pot test
Format: in vivo
Settings: Setaria faberi, 480 h, rate 500 g/ha, evaluated after 20 days, read-out: Pre-emergence activity, SETFA (100=total damage to plant; 0=no damage to plant)
Description: as §1, with “Pre-Emergence” for “Post-Emergence”

Row | SMILES | pest or weed control at 500 g/ha
32 | CCCC(CC)C(=O)OC1=C(c2c(CC)cc(C)cc2CC)C(=O)CC2(CCOCC2)C1 (centres unmarked) [Compound P15] | 70%
33 | CCC(=O)OC1=C(c2c(CC)cc(C)cc2CC)C(=O)CC2(CCOCC2)C1 [Compound P2] | 100%
34 | CCCCCCC(=O)OC1=C(c2c(CC)cc(C)cc2CC)C(=O)CC2(CCOCC2)C1 [Compound P10] | 100%
35 | CCCOC1=C(c2c(CC)cc(C)cc2CC)C(=O)CC2(CCOCC2)C1 [Compound P41] | 10%
36 | CCc1cc(C)cc(CC)c1C1=C(OC(=O)CC(C)(C)C)CC2(CCOCC2)CC1=O [Compound P6] | 70%

Tested on: Avena fatua (AVEFA)
Test: as above
Format: in vivo
Settings: Avena fatua, 480 h, rate 500 g/ha, evaluated after 20 days, read-out: Pre-emergence activity, AVEFA (100=total damage to plant; 0=no damage to plant)
Description: as §1, with “Pre-Emergence” for “Post-Emergence”

Row | SMILES | pest or weed control at 500 g/ha
37 | CCCC(CC)C(=O)OC1=C(c2c(CC)cc(C)cc2CC)C(=O)CC2(CCOCC2)C1 (centres unmarked) [Compound P15] | 90%
38 | CCC(=O)OC1=C(c2c(CC)cc(C)cc2CC)C(=O)CC2(CCOCC2)C1 [Compound P2] | 100%
39 | CCCCCCC(=O)OC1=C(c2c(CC)cc(C)cc2CC)C(=O)CC2(CCOCC2)C1 [Compound P10] | 100%
40 | CCCOC1=C(c2c(CC)cc(C)cc2CC)C(=O)CC2(CCOCC2)C1 [Compound P41] | 10%
41 | CCc1cc(C)cc(CC)c1C1=C(OC(=O)CC(C)(C)C)CC2(CCOCC2)CC1=O [Compound P6] | 90%
42 | CCCCCCCCCC(=O)OC1=C(c2c(CC)cc(C)cc2CC)C(=O)CC2(CCOCC2)C1 [Compound P43] | 100%

Tested on: Digitaria sanguinalis (DIGSA)
Test: as above
Format: in vivo
Settings: Digitaria sanguinalis, 480 h, rate 500 g/ha, evaluated after 20 days, read-out: Pre-emergence activity, DIGSA (100=total damage to plant; 0=no damage to plant)
Description: as §1, with “Pre-Emergence” for “Post-Emergence”

Row | SMILES | pest or weed control at 500 g/ha
43 | CCCC(CC)C(=O)OC1=C(c2c(CC)cc(C)cc2CC)C(=O)CC2(CCOCC2)C1 (centres unmarked) [Compound P15] | 90%
44 | CCC(=O)OC1=C(c2c(CC)cc(C)cc2CC)C(=O)CC2(CCOCC2)C1 [Compound P2] | 100%
45 | CCCCCCC(=O)OC1=C(c2c(CC)cc(C)cc2CC)C(=O)CC2(CCOCC2)C1 [Compound P10] | 100%
46 | CCCOC1=C(c2c(CC)cc(C)cc2CC)C(=O)CC2(CCOCC2)C1 [Compound P41] | 90%
47 | CCc1cc(C)cc(CC)c1C1=C(OC(=O)CC(C)(C)C)CC2(CCOCC2)CC1=O [Compound P6] | 100%

Tested on: Lolium perenne (LOLPE)
Test: as above
Format: in vivo
Settings: Lolium perenne, 480 h, rate 500 g/ha, evaluated after 20 days, read-out: Pre-emergence activity, LOLPE (100=total damage to plant; 0=no damage to plant)
Description: as §1, with “Pre-Emergence” for “Post-Emergence”

Row | SMILES | pest or weed control at 500 g/ha
48 | CCCC(CC)C(=O)OC1=C(c2c(CC)cc(C)cc2CC)C(=O)CC2(CCOCC2)C1 (centres unmarked) [Compound P15] | 100%
49 | CCC(=O)OC1=C(c2c(CC)cc(C)cc2CC)C(=O)CC2(CCOCC2)C1 [Compound P2] | 100%
50 | CCCCCCC(=O)OC1=C(c2c(CC)cc(C)cc2CC)C(=O)CC2(CCOCC2)C1 [Compound P10] | 100%
51 | CCCOC1=C(c2c(CC)cc(C)cc2CC)C(=O)CC2(CCOCC2)C1 [Compound P41] | 0%
52 | CCc1cc(C)cc(CC)c1C1=C(OC(=O)CC(C)(C)C)CC2(CCOCC2)CC1=O [Compound P6] | 100%
53 | CCCCCCCCCC(=O)OC1=C(c2c(CC)cc(C)cc2CC)C(=O)CC2(CCOCC2)C1 [Compound P43] | 100%

Tested on: Alopecurus myosuroides (ALOMY)
Test: as above
Format: in vivo
Settings: Alopecurus myosuroides, 480 h, rate 500 g/ha, evaluated after 20 days, read-out: Pre-emergence activity, ALOMY (100=total damage to plant; 0=no damage to plant)
Description: as §1, with “Pre-Emergence” for “Post-Emergence”

Row | SMILES | pest or weed control at 500 g/ha
54 | CCCC(CC)C(=O)OC1=C(c2c(CC)cc(C)cc2CC)C(=O)CC2(CCOCC2)C1 (centres unmarked) [Compound P15] | 0%
55 | CCC(=O)OC1=C(c2c(CC)cc(C)cc2CC)C(=O)CC2(CCOCC2)C1 [Compound P2] | 100%
56 | CCCCCCC(=O)OC1=C(c2c(CC)cc(C)cc2CC)C(=O)CC2(CCOCC2)C1 [Compound P10] | 100%
57 | CCCOC1=C(c2c(CC)cc(C)cc2CC)C(=O)CC2(CCOCC2)C1 [Compound P41] | 70%
58 | CCc1cc(C)cc(CC)c1C1=C(OC(=O)CC(C)(C)C)CC2(CCOCC2)CC1=O [Compound P6] | 100%
59 | CCCCCCCCCC(=O)OC1=C(c2c(CC)cc(C)cc2CC)C(=O)CC2(CCOCC2)C1 [Compound P43] | 100%

Tested on: Echinochloa crus-galli (ECHCG)
Test: as above
Format: in vivo
Settings: Echinochloa crus-galli, 480 h, rate 500 g/ha, evaluated after 20 days, read-out: Pre-emergence activity, ECHCG (100=total damage to plant; 0=no damage to plant)
Description: as §1, with “Pre-Emergence” for “Post-Emergence”

Row | SMILES | pest or weed control at 500 g/ha
60 | CCCC(CC)C(=O)OC1=C(c2c(CC)cc(C)cc2CC)C(=O)CC2(CCOCC2)C1 (centres unmarked) [Compound P15] | 60%
61 | CCC(=O)OC1=C(c2c(CC)cc(C)cc2CC)C(=O)CC2(CCOCC2)C1 [Compound P2] | 100%
62 | CCCCCCC(=O)OC1=C(c2c(CC)cc(C)cc2CC)C(=O)CC2(CCOCC2)C1 [Compound P10] | 100%
63 | CCCOC1=C(c2c(CC)cc(C)cc2CC)C(=O)CC2(CCOCC2)C1 [Compound P41] | 40%
64 | CCc1cc(C)cc(CC)c1C1=C(OC(=O)CC(C)(C)C)CC2(CCOCC2)CC1=O [Compound P6] | 70%
65 | CCCCCCCCCC(=O)OC1=C(c2c(CC)cc(C)cc2CC)C(=O)CC2(CCOCC2)C1 [Compound P43] | 100%

Reference: patent publication US8084649B2, “Herbicides” (Syngenta Crop Protection, inc., priority 2007, dated 2011)
